Where two headings read alike, the source gives them in different places.
How the values were obtained:
[1] = system: SARS-CoV-2 (BetaCov/Belgium/GHB-03021/2020 B.1 lineage A); assay: microbe, parasite or virus in culture; conditions: Severe acute respiratory syndrome coronavirus 2, 96 h, mean ± SD of two independent replicates
[2] = target: T1, SARS-CoV-2 M^pro (Severe acute respiratory syndrome coronavirus 2, UniProt P0DTD1); assay: biochemical; conditions: FRET; for IC50: substrate Dabcyl-[…]-Edans, mean ± SD of three independent measurements; for inhibition at 1 µM: single concentration of 1 μM, read-out: inhibition rate
T1 construct: main protease (M^pro, also known as Nsp5 and 3C-like protease); purchased Beyotime P0312S

[3] = in vitro; conditions: African green monkey
[4] = system: SARS-CoV-2 (BetaCov/Belgium/GHB-03021/2020 B.1 lineage A); conditions: […]; mean ± SD of two independent replicates
[5] = system: SARS-CoV-2 delta strains; set-up: method as in PMID 39072488; conditions: delta strain, Vero E6 cells, viral copy numbers in supernatant by qRT-PCR; cited from earlier work
[6] = system: SARS-CoV-2 (BetaCov/Belgium/GHB-03021/2020 B.1 lineage A); conditions: VeroE6-eGFP cells; from a previous report, measured under identical conditions; cited from earlier work
[7] = system: VeroE6-eGFP cells; conditions: from a previous report, measured under identical conditions; cited from earlier work

Row | SMILES | EC50 [1] [µM] | IC50 [2] [µM] | inhibition at 1 µM [2] [%] | CC50 at 5 days [3] [µM] | EC50 [4] | EC50 [5] [µM] | EC50 [6] [µM] | CC50 [7] [µM]
1 | CNC(=O)c1cc(Br)cc([N+](=O)[O-])c1N[C@@H]1CCCC[C@@H]1NC(=O)c1cccnc1 [Compound A5, N-((1S,2R)-2-((4-bromo-2-(methylcarbamoyl)-6-nitrophenyl)amino)cyclohexyl)nicotinamide] | 2.01 to 6.05 | 1.05 ± 0.067 | 53.7 | > 100 | – | – | – | –
2 | CNC(=O)c1cc(Br)cc([N+](=O)[O-])c1N[C@@H]1CCCC[C@@H]1NC(=O)c1cncc(O)c1 [Compound A6, N-((1S,2R)-2-((4-bromo-2-(methylcarbamoyl)-6-nitrophenyl)amino)cyclohexyl)-5-hydroxynicotinamide] | – | 1.08 ± 0.023 | 55.5 | > 100 | – | – | – | –
3 | CNC(=O)c1cc(Br)cc([N+](=O)[O-])c1N[C@@H]1CCCC[C@@H]1NC(=O)c1cc(=O)[nH]c2ccccc12 [Compound A9, N-((1S,2R)-2-((4-bromo-2-(methylcarbamoyl)-6-nitrophenyl)amino)cyclohexyl)-2-oxo-1,2-dihydroquinoline-4-carboxamide] | 0.18 ± 0.02 | 0.154 ± 0.006 | 92 | > 100 | micromolar or submicromolar range | 0.849 | – | –
4 | CC(C)(C)[C@H](NC(=O)C(F)(F)F)C(=O)N1C[C@H]2[C@@H]([C@H]1C(=O)N[C@H](C#N)C[C@@H]1CCNC1=O)C2(C)C [Nirmatrelvir] | – | – | – | – | – | – | 0.123 ± 0.034 | > 100

— paper PMC11765572 (International Journal of Molecular Sciences, 2025)
